# Results as given in publication PMC11992225, “Antibacterial compounds against non-growing and intracellular bacteria” (npj Antimicrobials and Resistance, 2025).
# What was measured:
# [1] = tested on: non-growing S. aureus DSM2569; experiment: Dose-dependent killing analysis (CFU spot-plating) of stationary-phase S. aureus;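 for average Δlog10(CFU/ml) (killing): drug concentration in µM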; type: cell-based, Staphylococcus aureus; conditions: S. aureus; for average Δlog10(CFU/ml) (killing): vs 9,097 before treatment
# Outline: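 Survival was scored as CFU after overnight growth at 37 °C on LB agar, using spots from 10-fold PBS dilutions of treated cultures. Non-growing S. aureus DSM2569 had been exposed to compound for 24 h in 1:4 CA-MHB, pH 7.4. Three biological replicates were run.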
# [2] = tested on: non-growing S. aureus DSM2569; experiment: Dilution-regrowth assay (OD600, start-growth-time) on stationary-phase S. aureus; type: cell-based, Staphylococcus aureus; conditions: S. aureus; regrowth delay of non-growing bacteria, 1:4 CA-MHB pH 7.4, 24 h treatment, OD600 8 h after dilution; read-out: EC50
# Outline: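 Non-growing S. aureus was tested in a dilution-regrowth format. Cells were cultured and treated for 24 h in 1:4 diluted CA-MHB, pH 7.4, then diluted into drug-free medium, and OD600 was measured every 20 min. Start-growth-time was the time OD600 passed 0.12. Dose-response curves were fitted with a five-parameter logistic equation to derive EC50.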
# [3] = tested on: non-growing UPEC CFT073; experiment: Dose-dependent killing analysis (CFU spot-plating) of stationary-phase UPEC; type: cell-based, Escherichia coli;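 for average Δlog10(CFU/ml) (killing): drug concentration in µM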
# Outline: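 Killing assessed by CFU counts: overnight 37 °C LB agar spot plates (10 μl drops of 10-fold PBS dilutions) scored at the lowest dilution with distinct colonies. Samples were compound-treated non-growing UPEC CFT073, 200 μl per well. Performed as three biological replicates.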
# [4] = E. coli in 1:4 CA-MHB (pH 7.4), drug conc. 0.25
# [5] = E. coli in 1:4 CA-MHB (pH 7.4), drug conc. 0.5
# [6] = E. coli in 1:4 CA-MHB (pH 7.4), drug conc. 1
# [7] = E. coli in 1:4 CA-MHB (pH 7.4), drug conc. 2.5
# [8] = E. coli in 1:4 CA-MHB (pH 7.4), drug conc. 5
# [9] = E. coli in 1:4 CA-MHB (pH 7.4), drug conc. 10
# [10] = E. coli in LPM (pH 5.5), drug conc. 0.25
# [11] = E. coli in LPM (pH 5.5), drug conc. 0.5
# [12] = E. coli in LPM (pH 5.5), drug conc. 1
# [13] = E. coli in LPM (pH 5.5), drug conc. 2.5
# [14] = E. coli in LPM (pH 5.5), drug conc. 5
# [15] = E. coli in LPM (pH 5.5), drug conc. 10
structure (smiles),measurement,setting,value
N#Cc1c(N2C[C@@H]3NCCO[C@H]3C2)c(F)cc2c(=O)c(C(=O)O)cn(C3CC3)c12 [Finafloxacin],"log10(CFU/ml) after treatment, replicate 1",[1]; drug conc. 0.1,8.820 log10(CFU/ml)
same,"log10(CFU/ml) after treatment, replicate 2",[1]; drug conc. 0.1,9.041 log10(CFU/ml)
same,"log10(CFU/ml) after treatment, replicate 3",[1]; drug conc. 0.1,8.982 log10(CFU/ml)
same,average Δlog10(CFU/ml) (killing),[1]; drug conc. 0.1,0.149 log10(CFU/ml)
same,"log10(CFU/ml) after treatment, replicate 1",[1]; drug conc. 0.5,8.857 log10(CFU/ml)
same,"log10(CFU/ml) after treatment, replicate 2",[1]; drug conc. 0.5,9.176 log10(CFU/ml)
same,"log10(CFU/ml) after treatment, replicate 3",[1]; drug conc. 0.5,9.090 log10(CFU/ml)
same,average Δlog10(CFU/ml) (killing),[1]; drug conc. 0.5,0.056 log10(CFU/ml)
same,"log10(CFU/ml) after treatment, replicate 1",[1]; drug conc. 2.5,8.820 log10(CFU/ml)
same,"log10(CFU/ml) after treatment, replicate 2",[1]; drug conc. 2.5,8.954 log10(CFU/ml)
same,"log10(CFU/ml) after treatment, replicate 3",[1]; drug conc. 2.5,8.820 log10(CFU/ml)
same,average Δlog10(CFU/ml) (killing),[1]; drug conc. 2.5,0.233 log10(CFU/ml)
same,"log10(CFU/ml) after treatment, replicate 1",[1]; drug conc. 10,8.633 log10(CFU/ml)
same,"log10(CFU/ml) after treatment, replicate 2",[1]; drug conc. 10,8.996 log10(CFU/ml)
same,"log10(CFU/ml) after treatment, replicate 3",[1]; drug conc. 10,8.623 log10(CFU/ml)
same,average Δlog10(CFU/ml) (killing),[1]; drug conc. 10,0.346 log10(CFU/ml)
same,EC50,[2],4.66 µM
same,bactericidal effect against stationary-phase UPEC cultures,"[3]; 20 µM, preliminary experiments",bactericidal effects
same,"log10(CFU/ml) after treatment, replicate 1",[3]; [4],9.322 log10(CFU/ml)
same,"log10(CFU/ml) after treatment, replicate 2",[3]; [4],8.602 log10(CFU/ml)
same,"log10(CFU/ml) after treatment, replicate 3",[3]; [4],8.301 log10(CFU/ml)
same,average Δlog10(CFU/ml) (killing),"[3]; E. coli in 1:4 CA-MHB (pH 7.4), drug conc. 0.25, vs 8.977 before treatment",0.236 log10(CFU/ml)
same,"log10(CFU/ml) after treatment, replicate 1",[3]; [5],9.255 log10(CFU/ml)
same,"log10(CFU/ml) after treatment, replicate 2",[3]; [5],8.903 log10(CFU/ml)
same,"log10(CFU/ml) after treatment, replicate 3",[3]; [5],8.845 log10(CFU/ml)
same,average Δlog10(CFU/ml) (killing),"[3]; E. coli in 1:4 CA-MHB (pH 7.4), drug conc. 0.5, vs 8.977 before treatment",-0.024 log10(CFU/ml)
same,"log10(CFU/ml) after treatment, replicate 1",[3]; [6],9.322 log10(CFU/ml)
same,"log10(CFU/ml) after treatment, replicate 2",[3]; [6],8.845 log10(CFU/ml)
same,"log10(CFU/ml) after treatment, replicate 3",[3]; [6],8.699 log10(CFU/ml)
same,average Δlog10(CFU/ml) (killing),"[3]; E. coli in 1:4 CA-MHB (pH 7.4), drug conc. 1, vs 8.977 before treatment",0.022 log10(CFU/ml)
same,"log10(CFU/ml) after treatment, replicate 1",[3]; [7],9.176 log10(CFU/ml)
same,"log10(CFU/ml) after treatment, replicate 2",[3]; [7],9.041 log10(CFU/ml)
same,"log10(CFU/ml) after treatment, replicate 3",[3]; [7],8.230 log10(CFU/ml)
same,average Δlog10(CFU/ml) (killing),"[3]; E. coli in 1:4 CA-MHB (pH 7.4), drug conc. 2.5, vs 8.977 before treatment",0.161 log10(CFU/ml)
same,"log10(CFU/ml) after treatment, replicate 1",[3]; [8],8.362 log10(CFU/ml)
same,"log10(CFU/ml) after treatment, replicate 2",[3]; [8],8.230 log10(CFU/ml)
same,"log10(CFU/ml) after treatment, replicate 3",[3]; [8],8.000 log10(CFU/ml)
same,average Δlog10(CFU/ml) (killing),"[3]; E. coli in 1:4 CA-MHB (pH 7.4), drug conc. 5, vs 8.977 before treatment",0.780 log10(CFU/ml)
same,"log10(CFU/ml) after treatment, replicate 1",[3]; [9],7.491 log10(CFU/ml)
same,"log10(CFU/ml) after treatment, replicate 2",[3]; [9],7.954 log10(CFU/ml)
same,"log10(CFU/ml) after treatment, replicate 3",[3]; [9],8.079 log10(CFU/ml)
same,average Δlog10(CFU/ml) (killing),"[3]; E. coli in 1:4 CA-MHB (pH 7.4), drug conc. 10, vs 8.977 before treatment",1.136 log10(CFU/ml)
same,"log10(CFU/ml) after treatment, replicate 1",[3]; [10],7.114 log10(CFU/ml)
same,"log10(CFU/ml) after treatment, replicate 2",[3]; [10],6.230 log10(CFU/ml)
same,"log10(CFU/ml) after treatment, replicate 3",[3]; [10],8.000 log10(CFU/ml)
same,average Δlog10(CFU/ml) (killing),"[3]; E. coli in LPM (pH 5.5), drug conc. 0.25, vs 7.350 before treatment",0.236 log10(CFU/ml)
same,"log10(CFU/ml) after treatment, replicate 1",[3]; [11],7.114 log10(CFU/ml)
same,"log10(CFU/ml) after treatment, replicate 2",[3]; [11],6.447 log10(CFU/ml)
same,"log10(CFU/ml) after treatment, replicate 3",[3]; [11],7.699 log10(CFU/ml)
same,average Δlog10(CFU/ml) (killing),"[3]; E. coli in LPM (pH 5.5), drug conc. 0.5, vs 7.350 before treatment",0.264 log10(CFU/ml)
same,"log10(CFU/ml) after treatment, replicate 1",[3]; [12],6.845 log10(CFU/ml)
same,"log10(CFU/ml) after treatment, replicate 2",[3]; [12],6.342 log10(CFU/ml)
same,"log10(CFU/ml) after treatment, replicate 3",[3]; [12],7.204 log10(CFU/ml)
same,average Δlog10(CFU/ml) (killing),"[3]; E. coli in LPM (pH 5.5), drug conc. 1, vs 7.350 before treatment",0.553 log10(CFU/ml)
same,"log10(CFU/ml) after treatment, replicate 1",[3]; [13],6.301 log10(CFU/ml)
same,"log10(CFU/ml) after treatment, replicate 2",[3]; [13],6.699 log10(CFU/ml)
same,"log10(CFU/ml) after treatment, replicate 3",[3]; [13],6.580 log10(CFU/ml)
same,average Δlog10(CFU/ml) (killing),"[3]; E. coli in LPM (pH 5.5), drug conc. 2.5, vs 7.350 before treatment",0.824 log10(CFU/ml)
same,"log10(CFU/ml) after treatment, replicate 1",[3]; [14],6.000 log10(CFU/ml)
same,"log10(CFU/ml) after treatment, replicate 2",[3]; [14],6.301 log10(CFU/ml)
same,"log10(CFU/ml) after treatment, replicate 3",[3]; [14],5.903 log10(CFU/ml)
same,average Δlog10(CFU/ml) (killing),"[3]; E. coli in LPM (pH 5.5), drug conc. 5, vs 7.350 before treatment",1.282 log10(CFU/ml)
same,"log10(CFU/ml) after treatment, replicate 1",[3]; [15],6.146 log10(CFU/ml)
same,"log10(CFU/ml) after treatment, replicate 2",[3]; [15],6.114 log10(CFU/ml)
same,"log10(CFU/ml) after treatment, replicate 3",[3]; [15],5.544 log10(CFU/ml)
same,average Δlog10(CFU/ml) (killing),"[3]; E. coli in LPM (pH 5.5), drug conc. 10, vs 7.350 before treatment",1.416 log10(CFU/ml)
